Cl.NCCCC[C@H](N)C(=O)O
Conditions	solubility (mole fraction)
in DMSO, 282.8 K	0.0179
in DMSO, 288.2 K	0.0243
in DMSO, 293 K	0.0301
in DMSO, 298.1 K	0.0357
in DMSO, 303.3 K	0.0391
in DMSO, 308.4 K	0.0432
in DMSO, 312.8 K	0.0469
in DMSO, 318.1 K	0.0516
in DMSO, 323.2 K	0.0529
in DMSO, 328.3 K	0.0561
in ethanol, 288.1 K	6.71e-06
in ethanol, 292.8 K	8.31e-06
in ethanol, 298.1 K	9.91e-06
in ethanol, 303 K	1.09e-05
in ethanol, 308.1 K	1.22e-05
in ethanol, 312.7 K	1.41e-05
in ethanol, 318.2 K	1.63e-05
in ethanol, 322.9 K	1.76e-05
in ethanol, 328.3 K	1.92e-05
in ethylene glycol, 282.9 K	0.00769
in ethylene glycol, 288 K	0.0108
in ethylene glycol, 293.1 K	0.0146
in ethylene glycol, 298.2 K	0.0183
in ethylene glycol, 303.2 K	0.022
in ethylene glycol, 307.9 K	0.0259
in ethylene glycol, 312.9 K	0.0298
in ethylene glycol, 318 K	0.0326
in ethylene glycol, 322.7 K	0.0354
in ethylene glycol, 328.1 K	0.0377
in methanol, 297.9 K	0.000283
in methanol, 303 K	0.000368
in methanol, 308.1 K	0.000433
in methanol, 312.8 K	0.000501
in methanol, 318.1 K	0.00055
in methanol, 323 K	0.000592
in methanol, 327.8 K	0.000637
in water, 283 K	0.0497
in water, 288.1 K	0.0543
in water, 292.9 K	0.0587
in water, 298.1 K	0.0618
in water, 302.8 K	0.0627
in water, 308 K	0.0707
in water, 313.3 K	0.0833
in water, 317.9 K	0.0925
in water, 323 K	0.102
in water, 328.2 K	0.111

From BigSolDB 2.1
